Measured values published in patent publication US7687079B2, “Methods of treating ileus” (priority 2002, dated 2010).

Columns and labels:
[1] = tested on: COX-2 mRNA; experiment: COX-2 mRNA expression in muscularis of transplanted grafts (real time RT-PCR); assay type: in vivo, rat; conditions: CO-treated SITx rats, 4 hours after reperfusion
Procedure: The effects of inhalation of CO on transplant-induced pro-inflammatory and anti-inflammatory gene expression was assessed in muscularis extracts by RT-PCR. Muscularis extemae was collected from normal intestine and transplanted grafts 4 hours postoperatively and snap frozen in liquid nitrogen. This time point falls within the range of maximum inflammatory mediator expression that occurs between 3 and 6 hours following abdominal incision. Total RNA extraction was performed using the guanidium-thiocyanate phenol-chloroform extraction method as described previously (Eskandari et al., Am. J. Clin. Pathol. 75(3):367-370 (1997)). RNA pellets were resuspended in RNA-secure resuspension solution (Ambion Inc., Austin, Tex.), followed by removal of potentially contaminating DNA by treatment with DNase I (DNA-Free Kit, Ambion Inc., Austin, Tex.). Equal aliquots (5 μg) of total RNA from each sample were quantified by spectrophotometry (wavelength […]) and aliquoted at a concentration of 40 ng/μl. Peak mRNA expression was quantified in duplicate by SYBR Green two-step, real-time RT-PCR. […] Real-time PCR data were plotted as the ΔRn, fluorescence signal versus the cycle number. […] Quantification of mRNA expression was normalized to GAPDH and calculated relative to control using the comparative CT method (Schmittgen et al., J. Biochem. Biophys. Methods 46(1-2):69-8 (2000)). […]

[2] = tested on: total nitrite (NO production); experiment: total nitrite release from muscularis extracts (index of iNOS activity); assay type: in vivo, mouse; conditions: IM + CO vs IM, 24 hours after surgery
Procedure: Protein and Nitric Oxide Determinations. The small bowel of control and mice subjected to intestinal manipulation was removed under sterile conditions, 4 or 24 hours post-operatively, leaving the colon in situ. The small intestine was transferred to a beaker containing chilled Hanks balanced salt solution (Sigma, St. Louis, Mo.) with 200 U/ml penicillin G and 200 μg/ml streptomycin (HBSS), the lumen flushed, and the tissue transferred to a second beaker of HBSS. The muscularis was harvested as described above for real time RT-PCR. Tissues were maintained under sterile conditions at 3 to 5° C. throughout the harvesting procedure. Isolated muscularis was blotted onto sterile gauze, and the wet weight determined to obtain aliquots of 40 to 60 mg. […]
After the incubation period, the muscle tissue was pelleted, and aliquots of culture medium were frozen in liquid nitrogen and stored at −80° C. The levels of IL-6, IL-1β, PGE2, and IL-10 proteins secreted into the culture medium were determined using commercially available ELISA kits (R&D Systems, Minneapolis, Minn.) according to the manufacturer's instructions. […] Nitrate/nitrate levels were measured 24 hrs postoperatively using commercially available test kit (Oxford Biomedical Research, Oxford, Mich.) and quantified according to the manufacturer's directions. […]

[C-]#[O+] [CO, carbon monoxide]
reduction of mean relative COX-2 mRNA expression [1]: approximately 50% | surgically induced increase in nitrite release [2]: significantly inhibited
